The source of these data is ChEMBL document CHEMBL3045006, “Synthesis and anticonvulsant activity of 8-alkoxy-5,6-dihydro-4H-benzo[f][1,2,4]triazolo[4,3-a]azepine derivatives” (Med Chem Res, 2012).

Active and inactive are the calls of the source. No cut-off for these calls is given here.

For data set [1], the system named is Mus musculus. As to the kind of experiment: Anticonvulsant activity against subcutaneous pentylenetetrazole-induced seizures in ip dosed Mus musculus Swiss (mouse) at 30 mg/kg, ip measured at phase 2. It is filed as functional. As to conditions: sc.
For data set [2], the system named is Mus musculus. Kind of data set: Anticonvulsant activity against maximal electroshock-induced seizures in Mus musculus Swiss (mouse) at 100 mg/kg, ip administered 30 min before MES induction measured at phase 1. The data set is classed as functional, organism-based. The arrangement: dose 100 mg/kg. (In the maximal electroshock model the usual endpoint is tonic extension of the hind limbs.)

The subject of data set [3] is Mus musculus. As to the kind of experiment: Anticonvulsant activity against subcutaneous pentylenetetrazole-induced seizures in Mus musculus Swiss (mouse) at 100 mg/kg, ip measured at phase 1. It is filed as functional, organism-based. Also on record: dose 100 mg/kg.
Data set [4] relates to Mus musculus. Kind of data set: Anticonvulsant activity against maximal electroshock-induced seizures in ip dosed Mus musculus Swiss (mouse) administered 30 min before MES induction measured at phase 2. It is filed as functional.
Data set [5] has as its system Mus musculus. As to the kind of experiment: Anticonvulsant activity against subcutaneous pentylenetetrazole-induced seizures in Mus musculus Swiss (mouse) at 30 mg/kg, ip measured at phase 1. The data set is classed as functional, organism-based. The arrangement: dose 30 mg/kg.
Data set [6] in a line: (§1) Neurotoxicity in ip dosed Mus musculus Swiss (mouse) assessed as minimum motor impairment by rotarod test. The data set is classed as toxicity, organism-based. The settings on record: Swiss, in vivo. For orientation: In the rotarod test animals must keep their balance on a rotating rod.
Data set [7] is filed under the species Mus musculus. As to the kind of experiment: Protective index, ratio of TD50 for Mus musculus Swiss (mouse) to ED50 for Mus musculus Swiss (mouse) by maximal electroshock-induced seizure test. It is filed as functional.
For data set [8], the system named is Mus musculus. As to the kind of experiment: Protective index, ratio of TD50 for Mus musculus Swiss (mouse) to ED50 for Mus musculus Swiss (mouse) by subcutaneous pentylenetetrazole-induced seizure test. The data set is classed as functional.
Data set [9] has as its system Mus musculus. Kind of data set: Anticonvulsant activity against maximal electroshock-induced seizures in Mus musculus Swiss (mouse) at 30 mg/kg, ip administered 30 min before MES induction measured at phase 1. The data set is classed as functional, organism-based. The arrangement: dose 30 mg/kg.
Data set [10] relates to Mus musculus. As to the kind of experiment: Anticonvulsant activity against maximal electroshock-induced seizures in Mus musculus Swiss (mouse) at 300 mg/kg, ip administered 30 min before MES induction measured at phase 1. The data set is classed as functional, organism-based. The arrangement: dose 300 mg/kg.
Data set [11] has as its system Mus musculus. Described as §1. It is filed as toxicity, organism-based. The settings on record: in vivo.

Compound `CCCC(CCC)C(=O)O` [VALPROIC ACID] had a 50% effective dose (ED50) in the data set on Mus musculus [1] of 149 mg/kg.
Turning to `Fc1cccc(COc2ccc3c(c2)CCCc2nncn2-3)c1`, the values for the ED50 in the data set with Mus musculus [1] and with Mus musculus [4] were above 100 mg/kg and 27.4 mg/kg, respectively. Moreover, the outcome in the data set with Mus musculus [2] and with Mus musculus [3] was Active. For the same compound, the outcome in the data set on Mus musculus [5] was inactive. For the same compound, the TD50 in [6] was above 100 mg/kg.
Regarding `Fc1ccccc1COc1ccc2c(c1)CCCc1nncn1-2`, the ED50 in the data set on Mus musculus [1] was 35.4 mg/kg; with Mus musculus [4], 19 mg/kg. In addition, the “Ratio TD50/ED50” value in the data set filed under Mus musculus [7] was 4.5; with Mus musculus [8], 2.4. Moreover, the result in the data set with Mus musculus [3] and in the data set on Mus musculus [9] was Active. Moreover, in data set [6], the TD50 worked out at 84.9 mg/kg.
Take `NC(=O)N1c2ccccc2C=Cc2ccccc21` [CARBAMAZEPINE]: the ED50 is above 100 mg/kg in the data set with Mus musculus [1] and 8.8 mg/kg in the data set with Mus musculus [4].
Turning to `Clc1cccc(COc2ccc3c(c2)CCCc2nncn2-3)c1`, the ED50 in the data set with Mus musculus [1] was 80.7 mg/kg; in the data set on Mus musculus [4], 29.5 mg/kg. The result in the data set with Mus musculus [2] and with Mus musculus [3] was Active. The “Ratio TD50/ED50” value turned out to be 4.1 in the data set listed under Mus musculus [7] and 1.5 in the data set with Mus musculus [8]. For the same compound, in the data set with Mus musculus [5], the outcome was inactive. For the same compound, the TD50 in [6] is 120 mg/kg.
`CCC1(c2ccccc2)C(=O)NC(=O)NC1=O` [PHENOBARBITAL]: the ED50 with Mus musculus [1] was 13.2 mg/kg; in the data set with Mus musculus [4], 21.8 mg/kg.
Turning to `Clc1ccccc1COc1ccc2c(c1)CCCc1nncn1-2`, the ED50 is above 100 mg/kg in the data set with Mus musculus [1] and 20.5 mg/kg in the data set with Mus musculus [4]. Also, the “Ratio TD50/ED50” value was 3.4 in the data set listed under Mus musculus [7] and below 0.7 in the data set on Mus musculus [8]. In addition, the outcome in the data set with Mus musculus [3] and in the data set with Mus musculus [5] was inactive. Moreover, the TD50 in data set [6] came out at 70.9 mg/kg. The outcome with Mus musculus [9] was Active.
Consider `Brc1ccc(COc2ccc3c(c2)CCCc2nncn2-3)cc1`, for which the ED50 is above 100 mg/kg in the data set with Mus musculus [1] and 27 mg/kg in the data set with Mus musculus [4]. The outcome in the data set on Mus musculus [2] and in the data set with Mus musculus [3] was Active. Besides, the “Ratio TD50/ED50” value in the data set filed under Mus musculus [7] turned out to be 3; in the data set with Mus musculus [8] it was 0.9. Also, the outcome with Mus musculus [5] was inactive. Also, the TD50 in data set [6] was 96.2 mg/kg.
As to `Fc1ccc(COc2ccc3c(c2)CCCc2nncn2-3)cc1`, the values for the ED50 with Mus musculus [1] and in the data set with Mus musculus [4] were 47.3 mg/kg and 27.4 mg/kg, respectively. Also, the result with Mus musculus [2] and in the data set with Mus musculus [3] was Active. The “Ratio TD50/ED50” value in the data set listed under Mus musculus [7] amounted to 3.6; in the data set with Mus musculus [8], 2.1. In data set [6], the TD50 was found to be 97.4 mg/kg.
`COc1ccc2c(c1)CCCc1nncn1-2`: the result in the data set on Mus musculus [10] and with Mus musculus [9] was Active. Besides, the result in the data set with Mus musculus [3] and in the data set on Mus musculus [5] was inactive.
With `Clc1ccc(COc2ccc3c(c2)CCCc2nncn2-3)cc1`, the results for the ED50 with Mus musculus [1] and in the data set with Mus musculus [4] were 68.2 mg/kg and 27.4 mg/kg, respectively. In addition, the result with Mus musculus [2] and in the data set on Mus musculus [3] was Active. The “Ratio TD50/ED50” value in the data set filed under Mus musculus [7] is 3.7; in the data set on Mus musculus [8], 1.4. The outcome in the data set on Mus musculus [5] was inactive. Also, the TD50 in data set [6] was found to be 98.6 mg/kg.
In the case of `CCCOc1ccc2c(c1)CCCc1nncn1-2`, the ED50 with Mus musculus [1] was above 100 mg/kg; in the data set with Mus musculus [4] it was 73.3 mg/kg. For the same compound, the result in the data set on Mus musculus [2] was Active. In addition, the result in the data set on Mus musculus [3] and in the data set on Mus musculus [5] was inactive. Moreover, in the data set with Mus musculus [11], the TD50 entry was “Not Active”.
`O=C1NC(=O)C(c2ccccc2)(c2ccccc2)N1` [PHENYTOIN] returned an ED50 in the data set on Mus musculus [1] above 300 mg/kg.
Take `CCCCOc1ccc2c(c1)CCCc1nncn1-2`: the ED50 with Mus musculus [1] is 36.7 mg/kg; in the data set with Mus musculus [4], 21.2 mg/kg. For the same compound, the “Ratio TD50/ED50” value stood at 3.5 in the data set listed under Mus musculus [7] and 2 in the data set with Mus musculus [8]. Besides, the result with Mus musculus [3] and in the data set with Mus musculus [9] was Active. For the same compound, in data set [6], the TD50 was 73.3 mg/kg.
In the case of `CCCCCOc1ccc2c(c1)CCCc1nncn1-2`, the ED50 with Mus musculus [1] amounted to 21.2 mg/kg; in the data set on Mus musculus [4] it was 17.5 mg/kg. In addition, the results for the “Ratio TD50/ED50” value in the data set listed under Mus musculus [7] and in the data set on Mus musculus [8] were 6.5 and 5.4, respectively. The result with Mus musculus [5] and in the data set with Mus musculus [9] was Active. Moreover, in data set [6], the TD50 turned out to be 114 mg/kg.
Regarding `c1ccc(COc2ccc3c(c2)CCCc2nncn2-3)cc1`, the figures for the ED50 in the data set with Mus musculus [1] and with Mus musculus [4] were 78.9 mg/kg and 23.7 mg/kg, respectively. Moreover, the “Ratio TD50/ED50” value in the data set filed under Mus musculus [7] turned out to be 3.3; in the data set on Mus musculus [8], 1. The result in the data set on Mus musculus [3] and with Mus musculus [9] was Active. In the data set with Mus musculus [5], the outcome was inactive. The TD50 in data set [6] stood at 78.9 mg/kg.
As to `CCCCCCOc1ccc2c(c1)CCCc1nncn1-2`, the ED50 with Mus musculus [1] came out at 24.6 mg/kg; with Mus musculus [4], 17.7 mg/kg. Further, the entries for the “Ratio TD50/ED50” value in the data set listed under Mus musculus [7] and in the data set on Mus musculus [8] were 4.8 and 3.4, respectively. Moreover, the TD50 in data set [6] stood at 84.2 mg/kg. Further, the outcome in the data set with Mus musculus [9] was Active.
On to `Cc1ccc(COc2ccc3c(c2)CCCc2nncn2-3)cc1`, for which the ED50 with Mus musculus [1] came out at 90.1 mg/kg; in the data set on Mus musculus [4] it was 27.4 mg/kg. Besides, the outcome with Mus musculus [2] was Active. Moreover, the figures for the “Ratio TD50/ED50” value in the data set filed under Mus musculus [7] and in the data set with Mus musculus [8] were 3.6 and 1.1, respectively. The result in the data set on Mus musculus [3] and with Mus musculus [5] was inactive. Besides, the TD50 in data set [6] was determined as 82.9 mg/kg.
On to `CCCCCCCOc1ccc2c(c1)CCCc1nncn1-2`, for which the values for the ED50 in the data set with Mus musculus [1] and in the data set with Mus musculus [4] were 26.4 mg/kg and 19.7 mg/kg, respectively. In addition, the “Ratio TD50/ED50” value worked out at 3.5 in the data set filed under Mus musculus [7] and 2.6 with Mus musculus [8]. Moreover, the outcome in the data set on Mus musculus [3] and with Mus musculus [9] was Active. Besides, the TD50 in data set [6] came out at 68.4 mg/kg.

As usually defined, the ED50 is the dose at which the effect has come halfway, by size or by number of responders. Lower therefore signals greater potency. The term TD50 denotes the 50% point of the dose-response relation for the toxic effect studied.
